Measurements reported in patent publication US20230248745A1, “SILVER ENHANCED CANNABINOID ANTIBIOTICS” (priority 2020, published 2023).
Entries after “also recorded” stand apart in the source; their conditions may differ. Where two headings read alike, the source gives them in different places.

What was measured:
MRSA (USA300) = test: Checkerboard assay, FICI of cannabinoid/silver combinations; type: cell-based, Methicillin-resistant Staphylococcus aureus
Procedure: (§1) Antibacterial growth was measured using a checkerboard analysis or qualitatively using agar plates with zones of inhibition. Viability was measured by the number of colony forming units (CFU) over time.
(§2) Using checkerboard analysis, the fractional inhibitory concentration index (FICI) was calculated for the 96-well plate test to illustrate synergy.
(§3) MRSA strain, USA300, was cultured in Luria-Bertani (LB) medium and inoculated at 37 C.
(§4) Cannabinoids or silver (expressed as the concentration of silver not the salt) were serially diluted 2-fold across the 96-well plate (Costar, catalog no. 3370) followed by addition of 100 μL of bacterial cultures with an OD600 of 0.0025. […] Wells turbidity were then analyzed using Varioskan™ microplate reader.
(§5) FICI was calculated in a checkerboard assay based on the turbidity of the wells. FIC of each agent was determined as the ratio of the minimal inhibitory concentration MIC of one agent in the presence of the other agent to the MIC of that agent alone. FICI was consequently computed as the sum of each agent's FIC.

E. coli strain K12 = test: as above; type: cell-based, Escherichia coli; conditions: for FICI Silver Nanoparticles: Silver Nanoparticles in combination with the cannabinoid; for FICI Silver Sulfate: Silver Sulfate in combination with the cannabinoid
Procedure: as §1, §2
(§6) Escherichia coli (E. coli), strain K12, was cultured in Luria-Bertani (LB) medium and inoculated at 37 C.
as §4, §5

E. coli (strain K12) = test: Kill-curve test (CFU over time); type: cell-based, Escherichia coli; conditions: for inhibitory effect on E. coli growth over 24 hours / inhibition of E. coli growth over 24 hours / inhibition of E. coli growth (summary): cannabinoid alone; for inhibitory effect on E. coli growth over 24 hours: 8 mg/L; for inhibition of E. coli growth over 24 hours: 16 mg/L; for inhibition of E. coli growth (summary): concentrations up to 16 mg/L
Procedure: as §1, §6
(§7) For each test tube, 1 mL of culture at OD600 of 0.005 was added to 1 mL of LB medium containing antibiotics to reach target sub-MIC concentrations of each compound. Samples of 100 μL was extracted from each tube at the determined time stamps followed by 10-fold serial dilutions. 10 μL of each dilution was then added on the LB agar plates that were subsequently incubated for 24 hours. Colonies were inspected and results quantified as log CFU/mL.

MRSA (strain USA300) [1] = test: Kill-curve test (CFU over time); type: cell-based, Methicillin-resistant Staphylococcus aureus; conditions: for MRSA growth by 24 hours: cannabinoid alone at ½×MIC
Procedure: as §1, §3, §7

MRSA (strain USA300) [2] = test: microbe, parasite or virus in culture; type: cell-based, Methicillin-resistant Staphylococcus aureus; conditions: agent alone, silver expressed as silver
Text: In therapeutic applications, synergy between active ingredients occurs when an observed combined therapeutic effect is greater than the sum of therapeutic effects of individual active ingredients, or a new therapeutic effect is produced that the active ingredients could not produce alone. […] In this context, the enhancement of therapeutic effect may take the form of increased efficacy or potency and/or decreased adverse effects. The synergistic effect may be mediated in whole or in part by the pharmacokinetics and/or pharmacodynamics of the active ingredients in a subject, so that the amount and proportion of the ingredients in the formulation may be synergistic in vivo. This in vivo synergy may be effected with a formulation that includes the active ingredients in amounts and proportions that are also synergistic in in vitro assays of efficacy. As used herein, the term “synergistically effective amounts” accordingly refers to amounts that are synergistic in vivo and/or in vitro. A numeric quantification of synergy is often expressed as a fractional inhibitory concentration index (FICI), which represents the sum of the fractional inhibitory concentrations (FICs) of each drug tested, where the FIC is determined for each drug by dividing the minimum inhibitory concentration (MIC, the lowest concentration of the drug which prevents visible growth of the bacterium in a standard in vitro assay—standard colorometric assay based on resazurin) of each drug when used in combination by the MIC of each drug when used alone. In very general terms, a FICI lower or higher than 1 indicates positively correlated activity (at least additive or potentiation) or an absence of positive interactions, respectively. […] (as described and used by Joung D K et al. and Rakoliya K et al.)
as §4

MRSA (strain USA 300) = type: cell-based, Methicillin-resistant Staphylococcus aureus; conditions: for inhibition of bacterial growth (ring): single agent at 2% w/w to PVA, films and coated catheter sections, 24 hours
Procedure: PVA films were made by solvent casting using 33 μl drops of 2.5% PVA (88% hydrolyzed, 125 KDa molecular weight) mixed with CBC, CBG or CBGA (2% w/w to PVA). […] 3 mm sections of a urethral catheter (BARDEX® BARD®) were cut and coated with the same 33 μl volume of PVA/Silver/cannabinoid used to make films. Films and coated catheter sections were dried overnight in the dark. Five cavities were created in the LB agar plates containing MRSA (strain USA 300) at OD600 of 0.005. PVA films and catheters coated with PVA films were then placed in the cavities and moistened with 20 μL of deionized distilled water. Plates were incubated for 24 hours at 37° C.

[3] = Silver Nitrate in combination with the cannabinoid
[4] = cannabinoid with silver nitrate
[5] = cannabinoid with silver sulfate
[6] = 8 mg/L cannabinoid + 2.5, 1.25 and 0.625 mg/L AgSO4 (each)
[7] = cannabinoid ½×MIC + AgNP ⅛×MIC (5 mg/L)
[8] = Staphylococcus aureus, read-out: MIC
[9] = cannabinoid with silver nanoparticles
[10] = cannabinoid ½×MIC + silver nitrate 1 mg/L
[11] = cannabinoid ½×MIC + silver nitrate 5 and 8 mg/L

SMILES	FICI (MRSA (USA300); [3])	interaction (interpretation of FICI) (MRSA (USA300); [4])	FICI Silver Nanoparticles (E. coli strain K12)	FICI Silver Sulfate (E. coli strain K12)	interaction (interpretation of FICI) (E. coli strain K12; [5])	time through which bacterial growth was inhibited (E. coli (strain K12)) [h]	time through which the effect persisted (E. coli (strain K12)) [h]	time to the reduction in E. coli CFU (E. coli (strain K12)) [h]	time through which E. coli growth was inhibited (E. coli (strain K12); [6]) [h]	time to the reduction in E. coli CFU (E. coli (strain K12); [6]) [h]	inhibitory effect on E. coli growth over 24 hours (E. coli (strain K12))	inhibition of E. coli growth over 24 hours (E. coli (strain K12))	inhibition of E. coli growth (summary) (E. coli (strain K12))	kill-curve effect (CFU) (MRSA (strain USA300) [1])	MRSA growth by 24 hours (MRSA (strain USA300) [1])	kill-curve effect (CFU) (MRSA (strain USA300) [1]; [7])	time of onset of bactericidal effect (MRSA (strain USA300) [1]; [7]) [h]	time through which bactericidal effect persisted (MRSA (strain USA300) [1]; [7]) [h]	MIC (MRSA (strain USA300) [2]) [µg/mL]	MIC (MRSA (strain USA300) [2]; [8]) [µg/mL]	other results
CCCCCc1cc2c(c(O)c1C(=O)O)C=CC(C)(CCC=C(C)C)O2 (centres unmarked) [CBCA, cannabichromenic acid]	2	no improved antibiotic affect	1.25	0.50	synergistic	24	24	≤ 4	24	≤ 6	failed to achieve any inhibitory effect	failed to achieve any inhibition	fail to achieve any detectable inhibition	greater bactericidal effect	returned to levels equal to that of 0×MIC treatment	rapid bactericidal effect	2	24	2	–	time of full elimination of CFU (MRSA (strain USA300) [1]; [7]): 4 h
C=C(C)[C@@H]1CCC(C)=C[C@H]1c1c(O)cc(CCCCC)cc1O [CBD, cannabidiol, reference compound]	2	no improved antibiotic affect	1.25	1	not observed	–	–	–	–	–	–	no inhibition	fail to achieve any detectable inhibition	–	returned to levels equal to that of 0×MIC treatment	rapid bactericidal effect	2	–	–	2	inhibition of E. coli growth over 24 hours by the combination (E. coli (strain K12); 16 mg/L cannabinoid + 2.5 mg/L AgSO4): did not result in a substantial inhibition; also recorded: no increase in antimicrobial activity; MRSA growth over 24 hours compared to cannabinoid alone (MRSA (strain USA300) [1]; [7]): substantive decrease
C=C(C)[C@@H]1CCC(C)=C[C@H]1c1c(O)cc(CCCCC)c(C(=O)O)c1O [CBDA, cannabidiolic acid]	2	no improved antibiotic affect	0.73	0.52	potentiation	24	24	≤ 4	24	≤ 6	failed to achieve any inhibitory effect	failed to achieve any inhibition	fail to achieve any detectable inhibition	–	–	–	–	–	–	–	interaction (interpretation of FICI) (E. coli strain K12; [9]): potentiation
CCCCCc1cc(O)c(C/C=C(\C)CCC=C(C)C)c(O)c1 [CBG, cannabigerol]	0.625	partially synergistic	1.25	1	not observed	–	–	–	–	–	–	–	–	highly comparable bactericidal effect	returned to levels equal to that of 0×MIC treatment	rapid, full bactericidal effect	2	24	–	2	FICI (MRSA (USA300); Silver Nanoparticles in combination with the cannabinoid): 0.625; interaction (interpretation of FICI) (MRSA (USA300); [9]): partial synergy; antibiotic effect of combination compared with silver nanoparticles alone (MRSA (strain USA 300)): increased antibiotic effect; inhibition of bacterial growth (ring) (MRSA (strain USA 300)): some level of inhibition; time for which bactericidal effect persisted (MRSA (strain USA300) [1]): 24 h; kill-curve effect (CFU) (MRSA (strain USA300) [1]; cannabinoid ¼×MIC + silver nitrate 5 and 8 mg/L): perceptibly bactericidal; kill-curve effect (CFU) (MRSA (strain USA300) [1]; cannabinoid ½×MIC + AgNP 1/160×MIC (0.25 mg/L)): bactericidal effect which was greater than that seen with ½×MIC CBG alone; kill-curve effect (CFU) (MRSA (strain USA300) [1]; [10]): bactericidal effect; time for which bactericidal effect remained (MRSA (strain USA300) [1]; [10]): up to 6 hours; time of onset of bactericidal effect (MRSA (strain USA300) [1]; [10]): 2 h; kill-curve effect (CFU) (MRSA (strain USA300) [1]; [11]): fully bactericidal effect; time of onset of bactericidal effect (MRSA (strain USA300) [1]; [11]): 2 h; time through which bactericidal effect remained (MRSA (strain USA300) [1]; [11]): 24 h
O=[N+]([O-])[O-].[Ag+] [silver nitrate, reference compound]	–	–	–	–	–	–	–	–	–	–	–	–	–	–	–	–	–	–	16	–	inhibition of bacterial growth (ring) (MRSA (strain USA 300)): some level of inhibition; inhibition of bacterial growth (ring) (MRSA (strain USA 300); listed as Silver nitrate): strong inhibition; bacterial growth at 24 hours (MRSA (strain USA300) [1]; silver nitrate alone, 1 mg/L): full bacterial growth had occurred; duration of bacterial growth inhibition (MRSA (strain USA300) [1]; silver nitrate alone, 5 mg/L): 4 h; duration of bacterial growth inhibition (MRSA (strain USA300) [1]; silver nitrate alone, 8 mg/L): 6 h
